Source: BindingDB's records for doi:10.1073/pnas.0511292103 (Genomics Institute of The Novartis Research Foundation, 2006)

Target: T1, Ret proto-oncogene (Homo sapiens, UniProt Q9UE13)
T1 sequence (Q9UE13 whole entry): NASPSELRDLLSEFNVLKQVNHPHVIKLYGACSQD

Row | Structure (SMILES) | Ki [µM]
1 | Cc1ccc(NC(=O)c2ccc(CN3CCN(C)CC3)cc2)cc1Nc1nccc(-c2cccnc2)n1 | > 10
2 | Cc1cn(-c2cc(NC(=O)c3ccc(C)c(Nc4nccc(-c5cccnc5)n4)c3)cc(C(F)(F)F)c2)cn1 [AMN 107] | 8.68
